Data taken from the supplement of paper PMC13207355.
Where a name gives a salt, the structure may show the parent alone.

Key:
Details in all cases: exposure time: 72 h
[1] = test system: E28 (patient-derived glioblastoma stem cells of classical subtype); assay: surviving fraction (nuclei count normalised to DMSO); higher = more cells surviving (less toxic)
[2] = test system: E21 (patient-derived glioblastoma stem cells of mesenchymal subtype); assay: as above
[3] = test system: E13 (patient-derived glioblastoma stem cells of classical subtype); assay: as above
[4] = test system: E31 (patient-derived glioblastoma stem cells of proneural subtype); assay: as above
[5] = test system: FT3469 (normal neural stem cell line); assay: as above
[6] = test system: E34 (patient-derived glioblastoma stem cells of proneural subtype); assay: as above
[7] = test system: E57 (patient-derived glioblastoma stem cells of mesenchymal subtype); assay: as above
[8] = test system: E28; assay: phenotypic distance (Euclidean, principal components) from DMSO controls (arbitrary units); higher = stronger morphological change
[9] = test system: E21; assay: as above
[10] = test system: E13; assay: as above
[11] = test system: E31; assay: as above
[12] = test system: FT3469; assay: as above
[13] = test system: E34; assay: as above
[14] = test system: E57; assay: as above
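Throughout, for phenotypic distance (Euclidean, principal components) from DMSO controls: cell Painting imaging in 384-well plates, CellProfiler features reduced to at least 20 principal components, Euclidean distance versus same-plate DMSO vehicle wells (0.1% v/v), median over six images per well.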
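Throughout, for surviving fraction (nuclei count normalised to DMSO): nuclei counted by high-content imaging of Hoechst-stained cells in laminin-coated 384-well plates, relative to 0.1% DMSO vehicle wells, with staurosporine as cell-death control.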

C=C[C@H]1CN2CC[C@H]1C[C@@H]2[C@@H](O)c1ccnc2ccc(OC)cc12 [Quinidine hydrochloride monohydrate]
Details | phenotypic distance | surviving fraction
[1], 4.1 nM | – | 1.12
[1], 12.3 nM | – | 0.991
[1], 37 nM | – | 1.14
[1], 111.1 nM | – | 1.02
[1], 333.3 nM | – | 1.15
[1], 1000 nM | – | 1.07
[1], 3000 nM | – | 1.2
[2], 4.1 nM | – | 0.736
[2], 12.3 nM | – | 1.03
[2], 37 nM | – | 0.863
[2], 111.1 nM | – | 1.03
[2], 333.3 nM | – | 1
[2], 1000 nM | – | 0.964
[2], 3000 nM | – | 0.865
[3], 4.1 nM | – | 0.965
[3], 12.3 nM | – | 1.04
[3], 37 nM | – | 1.06
[3], 111.1 nM | – | 1.03
[3], 333.3 nM | – | 0.954
[3], 1000 nM | – | 1.09
[3], 3000 nM | – | 1.01
[4], 4.1 nM | – | 1.04
[4], 12.3 nM | – | 0.915
[4], 37 nM | – | 0.941
[4], 111.1 nM | – | 0.942
[4], 333.3 nM | – | 1.04
[4], 1000 nM | – | 0.944
[4], 3000 nM | – | 1.09
[5], 4.1 nM | – | 0.974
[5], 12.3 nM | – | 0.955
[5], 37 nM | – | 1.03
[5], 111.1 nM | – | 1.14
[5], 333.3 nM | – | 1.03
[5], 1000 nM | – | 0.998
[5], 3000 nM | – | 0.957
[6], 4.1 nM | – | 1.06
[6], 12.3 nM | – | 0.922
[6], 37 nM | – | 0.904
[6], 111.1 nM | – | 0.914
[6], 333.3 nM | – | 1.02
[6], 1000 nM | – | 0.91
[6], 3000 nM | – | 0.984
[7], 4.1 nM | – | 1.05
[7], 12.3 nM | – | 1.09
[7], 37 nM | – | 1.04
[7], 111.1 nM | – | 1.07
[7], 333.3 nM | – | 1.05
[7], 1000 nM | – | 1.09
[7], 3000 nM | – | 1.12
[8], 4.1 nM | 0.692 | –
[8], 12.3 nM | 0.479 | –
[8], 37 nM | 0.471 | –
[8], 111.1 nM | 0.837 | –
[8], 333.3 nM | 0.667 | –
[8], 1000 nM | 0.843 | –
[8], 3000 nM | 0.738 | –
[9], 4.1 nM | 1.42 | –
[9], 12.3 nM | 0.785 | –
[9], 37 nM | 0.783 | –
[9], 111.1 nM | 0.852 | –
[9], 333.3 nM | 0.814 | –
[9], 1000 nM | 0.565 | –
[9], 3000 nM | 1.06 | –
[10], 4.1 nM | 2.06 | –
[10], 12.3 nM | 2.74 | –
[10], 37 nM | 0.288 | –
[10], 111.1 nM | 0.43 | –
[10], 333.3 nM | 3.29 | –
[10], 1000 nM | 0.415 | –
[10], 3000 nM | 0.498 | –
[11], 4.1 nM | 1.52 | –
[11], 12.3 nM | 0.739 | –
[11], 37 nM | 0.504 | –
[11], 111.1 nM | 0.428 | –
[11], 333.3 nM | 0.941 | –
[11], 1000 nM | 0.478 | –
[11], 3000 nM | 0.676 | –
[12], 4.1 nM | 1.14 | –
[12], 12.3 nM | 0.621 | –
[12], 37 nM | 0.809 | –
[12], 111.1 nM | 0.891 | –
[12], 333.3 nM | 0.965 | –
[12], 1000 nM | 0.266 | –
[12], 3000 nM | 0.69 | –
[13], 4.1 nM | 1.26 | –
[13], 12.3 nM | 0.809 | –
[13], 37 nM | 1.05 | –
[13], 111.1 nM | 0.841 | –
[13], 333.3 nM | 0.778 | –
[13], 1000 nM | 0.516 | –
[13], 3000 nM | 0.396 | –
[14], 4.1 nM | 0.629 | –
[14], 12.3 nM | 0.932 | –
[14], 37 nM | 0.42 | –
[14], 111.1 nM | 5.48 | –
[14], 333.3 nM | 0.376 | –
[14], 1000 nM | 0.318 | –
[14], 3000 nM | 0.734 | –

CC1=C(/C=C/C(C)=C/C=C/C(C)=C/C(=O)Nc2ccc(O)cc2)C(C)(C)CCC1 [Retinoic acid p-hydroxyanilide]
Details | phenotypic distance | surviving fraction
[1], 4.1 nM | – | 1.11
[1], 12.3 nM | – | 0.963
[1], 37 nM | – | 1.13
[1], 333.3 nM | – | 1.08
[1], 1000 nM | – | 0.931
[1], 3000 nM | – | 0.00413
[2], 4.1 nM | – | 1.05
[2], 12.3 nM | – | 0.947
[2], 37 nM | – | 0.953
[2], 333.3 nM | – | 1.02
[2], 1000 nM | – | 0.781
[2], 3000 nM | – | 0.00532
[3], 4.1 nM | – | 0.963
[3], 12.3 nM | – | 0.967
[3], 37 nM | – | 1.09
[3], 333.3 nM | – | 1.07
[3], 1000 nM | – | 0.734
[3], 3000 nM | – | 0.00947
[4], 4.1 nM | – | 0.912
[4], 12.3 nM | – | 0.905
[4], 37 nM | – | 0.993
[4], 333.3 nM | – | 1.05
[4], 1000 nM | – | 0.927
[4], 3000 nM | – | 0.00743
[5], 4.1 nM | – | 1
[5], 12.3 nM | – | 1.04
[5], 37 nM | – | 1.04
[5], 333.3 nM | – | 0.89
[5], 1000 nM | – | 0.901
[5], 3000 nM | – | 0.0056
[6], 4.1 nM | – | 1.28
[6], 12.3 nM | – | 1.05
[6], 37 nM | – | 0.937
[6], 333.3 nM | – | 1.08
[6], 1000 nM | – | 0.967
[6], 3000 nM | – | 0.00196
[7], 4.1 nM | – | 1.12
[7], 12.3 nM | – | 1.08
[7], 37 nM | – | 1.05
[7], 333.3 nM | – | 1.06
[7], 1000 nM | – | 1.03
[7], 3000 nM | – | 0.00394
[8], 4.1 nM | 0.643 | –
[8], 12.3 nM | 0.734 | –
[8], 37 nM | 0.511 | –
[8], 333.3 nM | 0.842 | –
[8], 1000 nM | 1.73 | –
[8], 3000 nM | 19.3 | –
[9], 4.1 nM | 0.779 | –
[9], 12.3 nM | 0.993 | –
[9], 37 nM | 0.775 | –
[9], 333.3 nM | 1.03 | –
[9], 1000 nM | 2.42 | –
[9], 3000 nM | 10.8 | –
[10], 4.1 nM | 0.545 | –
[10], 12.3 nM | 0.333 | –
[10], 37 nM | 0.641 | –
[10], 333.3 nM | 3.32 | –
[10], 1000 nM | 4.24 | –
[10], 3000 nM | 9.85 | –
[11], 4.1 nM | 0.825 | –
[11], 12.3 nM | 0.482 | –
[11], 37 nM | 0.638 | –
[11], 333.3 nM | 1.69 | –
[11], 1000 nM | 2.86 | –
[11], 3000 nM | 18.6 | –
[12], 4.1 nM | 0.589 | –
[12], 12.3 nM | 0.564 | –
[12], 37 nM | 0.708 | –
[12], 333.3 nM | 1.89 | –
[12], 1000 nM | 2.61 | –
[12], 3000 nM | 17.7 | –
[13], 4.1 nM | 0.884 | –
[13], 12.3 nM | 0.569 | –
[13], 37 nM | 0.817 | –
[13], 333.3 nM | 1.4 | –
[13], 1000 nM | 2.38 | –
[13], 3000 nM | 19.6 | –
[14], 4.1 nM | 0.591 | –
[14], 12.3 nM | 0.726 | –
[14], 37 nM | 0.599 | –
[14], 333.3 nM | 0.631 | –
[14], 1000 nM | 1.92 | –
[14], 3000 nM | 15.3 | –
